Test results as given in patent US7825123B2, “Isoxazolo[4,5]pyridin-3-yl-piperazin derivatives useful as modulators of dopamine D3 receptors” (Hoffmann-La Roche Inc., priority 2008, dated 2010).
pKi: −log10 of the molar value.

target: T1, human D3 dopamine receptor (Homo sapiens, UniProt P35462); assay: radioligand binding ([3H]-spiperone) to cloned human D3 receptors expressed in HEK-293 EBNA cells; settings: [3H]-spiperone approx. 0.5 nM, HEK-293 EBNA membranes, 1 h at RT; Ki by Cheng-Prusoff
T1 construct: expressed in transfected cells; host or cells: HEK-293 EBNA cells, transient transfection; membrane preparation
Experimental: The cells were harvested 48 h post-transfection, washed three times with cold PBS and stored at −80° C. prior to use. The pellet was suspended in cold 50 mM Tris-HCl buffer containing 10 mM EDTA (pH 7.4) and homogenized with a Polytron (Kinematica AG, Basel, Switzerland) for 20-30 sec at 12.000 rpm. After centrifugation at 48.000×g for 30 min at 4° C., the pellet was resuspended in cold 10 mM Tris-HCl buffer containing 0.1 mM EDTA (pH 7.4), homogenized, and centrifuged as above. This pellet was further resuspended in a smaller volume of ice cold 10 mM Tris-HCl buffer containing 0.1 mM EDTA (pH 7.4) and homogenized with a Polytron for 20-30 sec at 12.000 rpm. The protein content of this homogenate was determined with the Bio-Rad (Bradford) Protein Assay (Biorad Laboratories GmbH, München, Germany) according to the instructions of the manufacturer using gamma globulin as the standard. This homogenate was stored at −80° C. in aliquots and thawed immediately prior to use.
Aliquots of membrane preparations were thawed at RT, resuspended in assay buffer (50 mM Tris-HCl, 120 mM NaCl, 5 mM MgCl2, 1 mM EDTA, 5 mM KCl, 1.5 mM CaCl2, pH=7.4), homogenized with a Polytron for 20-30 sec at 12.000 rpm and adjusted to a final concentration of approximately 7.5 μg protein/well.
The binding affinity (Ki) of the compounds was determined using radioligand binding. Membranes were incubated in a total volume of 200 μl with a fixed concentration of radioligand (final concentration approximately 0.5 nM [^3H]-spiperone) and ten concentrations of test compound in ranging between 10 μM-0.1 nM for 1 h at RT. […] The nonspecific binding was determined with equally composed reaction mixtures in the presence of 10 μM unlabelled spiperone. Per well 45 μl of Microscint 40 (Perkin Elmer, Schwerzenbach, Switzerland) was added, plates for sealed, shaken for 20 min and counted for 3 min on a Topcount Microplate Scintillation Counter (Canberra Packard SA, Zürich, Switzerland) with quenching correction.
The CPM value for each duplicate of a concentration of competing compound was averaged (y1), then the % specific binding was calculated according to the equation (((y1−non-specific)/(total binding−non-specific))×100). Graphs were plotted with the % specific binding using XLfit, a curve fitting program that iteratively plots the data using Levenburg Marquardt algorithm. The single site competition analysis equation used was y=A+((B−A)/(1+((x/C)^D))), where y is the % specific binding, A is the minimum y, B is the maximum y, C is the IC50, x is the log10 of the concentration of the competing compound and D is the slope of the curve (the Hill Coefficient). […] The affinity constant (Ki) was calculated using the Cheng-Prusoff equation Ki=(IC50/1+([L]/Kd), where [L] is the concentration of radioligand and Kd is the dissociation constant of the radioligand at the receptor as determined by the saturation isotherm.

T1 sequence (P35462 whole entry): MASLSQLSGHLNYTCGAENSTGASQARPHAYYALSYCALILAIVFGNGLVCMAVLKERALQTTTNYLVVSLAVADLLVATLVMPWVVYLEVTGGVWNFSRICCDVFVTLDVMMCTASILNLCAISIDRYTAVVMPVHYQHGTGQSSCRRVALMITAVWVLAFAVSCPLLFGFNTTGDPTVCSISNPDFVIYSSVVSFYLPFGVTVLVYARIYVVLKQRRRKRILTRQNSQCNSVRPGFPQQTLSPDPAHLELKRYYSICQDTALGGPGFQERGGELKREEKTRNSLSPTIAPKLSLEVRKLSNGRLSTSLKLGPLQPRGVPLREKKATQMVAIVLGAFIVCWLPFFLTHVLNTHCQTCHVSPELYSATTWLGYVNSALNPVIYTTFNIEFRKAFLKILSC

Row | pKi | Structure (SMILES)
1 | 7.39 | CC(=O)N[C@H]1CC[C@H](CCN2CCN(c3noc4ccncc34)CC2)CC1 [Example 1, N-{trans-4-[2-(4-Isoxazolo[4,5-c]pyridin-3-yl-piperazin-1-yl)-ethyl]-cyclohexyl}-acetamide]
2 | 7.62 | COCCC(=O)N[C@H]1CC[C@H](CCN2CCN(c3noc4ccncc34)CC2)CC1 [Example 2, N-{trans-4-[2-(4-Isoxazolo[4,5-c]pyridin-3-yl-piperazin-1-yl)-ethyl]-cyclohexyl}-3-methoxy-propionamide]
3 | 7.91 | CCC(=O)N[C@H]1CC[C@H](CCN2CCN(c3noc4ccncc34)CC2)CC1 [Example 3, N-{trans-4-[2-(4-Isoxazolo[4,5-c]pyridin-3-yl-piperazin-1-yl)-ethyl]-cyclohexyl}-propionamide]
4 | 7.81 | O=C(CC1CC1)N[C@H]1CC[C@H](CCN2CCN(c3noc4ccncc34)CC2)CC1 [Example 4, 2-Cyclopropyl-N-{trans-4-[2-(4-isoxazolo[4,5-c]pyridin-3-yl-piperazin-1-yl)-ethyl]-cyclohexyl}-acetamide]
5 | 7.01 | O=C(N[C@H]1CC[C@H](CCN2CCN(c3noc4ccncc34)CC2)CC1)c1ccc(F)cc1 [Example 6, 4-Fluoro-N-{trans-4-[2-(4-isoxazolo[4,5-c]pyridin-3-yl-piperazin-1-yl)-ethyl]-cyclohexyl}-benzamide]
6 | 7.20 | O=C(N[C@H]1CC[C@H](CCN2CCN(c3noc4ccncc34)CC2)CC1)c1ccc(F)nc1 [Example 7, 6-Fluoro-N-{trans-4-[2-(4-isoxazolo[4,5-c]pyridin-3-yl-piperazin-1-yl)-ethyl]-cyclohexyl}-nicotinamide]

Row | Structure (SMILES) | pKi
7 | O=C(CF)N[C@H]1CC[C@H](CCN2CCN(c3noc4ccncc34)CC2)CC1 [Example 5, 2-Fluoro-N-{trans-4-[2-(4-isoxazolo[4,5-c]pyridin-3-yl-piperazin-1-yl)-ethyl]-cyclohexyl}-acetamide] | 7.37
